Laboratory results taken from US11351178B2, “Selective HDAC6 inhibitors” (ITALFARMACO S.P.A., priority 2017, dated 2022).

Key:
[1] = type: in vivo; conditions: mouse, Day 12, 100 mg/Kg ip
Procedure: Following chronic intraperitoneal administration in C57BL/6 mice, compounds MTD was estimated by clinical (body weight and behaviour) and blood (white blood cells and platelets) parameters evaluation. The compounds were administered after dissolution in a H2O/PEG400 mixture in ratio 1:1 w/w containing 5% DMSO (for compound 17, 20% DMSO was used).
All animals were weighed the day before the treatment (day 0) and the average body weight was determined.
Animals (8 animals per group) were treated once a day starting from Day 1 during 5 consecutive days per week with: • a) the compounds at doses of 10, 30, 50 mg/kg ip, • b) Givinostat at 100 mg/kg (internal control) and • c) the vehicle solutions used for solubilizing the substances.
The volume of the solutions administered was 10 mL/Kg. The treatment was repeated for 2 weeks, for a total of 10 treatments/group.
On a daily basis any clinical sign (skin appearance, mobility and animal reactivity, respiration, etc.) indicating a possible toxicity of the compounds has been reported. The animal weight was evaluated on days 2, 4, 9 and 11.
On Day 1, 3, 5, 8, 10 and 12, blood sample (about 50 μL) were taken from the tail of the animal to evaluate the effect of the substances on blood parameters. Withdrawals were performed on 4 animals per group on alternate days.
Samples were harvested in tubes containing EDTA, appropriately diluted in physiological solution and analysed with a cell counter.
At the end of the study (day 12) the animals were sacrificed 60 minutes after the last treatment. Gross necropsy evaluation was performed to detect any internal organ abnormalities. Table 8 summarizes the data obtained in MTD determination experiments for some of the compounds according to the invention. Givinostat is a HDAC pan inhibitor and was used as a reference. The tested molecules are well tolerated.

[2] = test system: α-tubulin acetylation in 697 cell line; assay: In vitro α-tubulin acetylation in 697 cell line; type: cell-based
Procedure: (§1) The in vitro α-tubulin and H3 histone acetylation determination was evaluated on B 697 […] cell line.
(§2) The test molecules were diluted from 20 mM stock solution in DMSO with RPMI 10% FCS+0.01% DMSO medium at 20× concentration compared to the final concentration, added to the cells (15×10^6 cells in a total volume of 30 ml in RPMI medium 10% FCS+0.01% DMSO) to obtain the final concentrations of 1000, 333, 111 and 37 nM and incubated at 37° C., 5% CO2 for 16 hours.
At the end of the incubation period, 5×10^6 cells were taken from each sample, centrifuged for 5 minutes at 1100 rpm and washed in 0.9% NaCl at 4° C. The resulting pellet was lysed by treating at 4° C. for 30 minutes with 150 μl of Complete Lysis-M (Roche, cat-04719956051) containing protease inhibitors and phosphatase (Complete Easy Pack proteinase inhibitor cocktail tablets cat: 04693116001, Phostop easypack phosphatase inhibitor cocktails, cat: 01906837001—Roche), then centrifuged 10 minutes at 14,000 rpm (20817×g). 0.150 μg of supernatant (total protein extract) were diluted in 100 μl of 1×PBS and immobilized in Maxisorp F96 NUN-IMMUNO Plate (Nunc cat #5442404) at room temperature overnight. Plates were washed twice with Wash Buffer (PBS1X+0.005% tween 20) and saturated for 1 hour at room temperature with 300 μL of 1×PBS containing 10 FCS. After washing with buffer (1×PBS containing 0.005% tween), the plates were incubated for two hours at room temperature in the presence of anti-acetylated-α-tubulin antibody (Monoclonal Anti-acetylated-tubulin clone 6-11B-1, mouse ascites fluid, cat #T6793 Sigma, 100 μl diluted 1:1000 in 1×PBS containing 10% FCS) or with total anti-α-tubulin antibody (Monoclonal Anti alpha-tubulin produced in mouse, cat #T6074 Sigma). After washing, 100 μl per well of TMB substrate kit was added for 10 minutes at room temperature in the dark. The reaction was stopped by adding 50 μl of 2N H2SO4. The plates were read at Multiskan Spectrum spectrophotometer at a wavelength of 450 nm.
The degree of acetylation was calculated by dividing the absorbance obtained for acetylated α-tubulin by the absorbance of total α-tubulin.
(§3) Test results of tubulin and H3 histone acetylation, expressed as fold increase of ratio of acetylated α-tubulin/total α-tubulin and H3Ac/H3Tot, respectively, of each sample relative to the control sample (untreated) are summarized in Tables 6 and 6′.

[3] = test system: H3 histone acetylation in 697 cell line; assay: In vitro H3 histone acetylation in 697 cell line; type: cell-based
Procedure: as §1, §2
The remaining cells (10×10^6) were treated by acid extraction of histones (Kazuhiro et al., PNAS (2002), 99 (13) 8921-8926). Cells were centrifuged 5 min at 1100 rpm at 4° C. and washed once in 0.9% NaCl. The resulting pellet was lysed with […] (10 mM Tris.HCl, pH 6.5/50 mM sodium bisulphite, 1% Triton X-100/10 mM MgCl2/8.6% saccharose containing the protease inhibitor mixture (Roche)) for 20 min at 4° C. The resulting nucleus pellet was repeatedly washed in buffer until supernatant clarification (centrifuged at 7,500×g, 5 minutes after each wash) and finally washed in nucleus buffer (10 mM Tris.HCl/13 mm EDTA, pH 7, 4) and resuspended in 250 μl of 0.2 M HCl/H2SO4. Histone proteins were extracted in an acidic environment by incubating overnight at 4° C. under gentle shaking. After centrifugation at 14,000 rpm at 4° C. for 10 minutes, 1250 μl of cold acetone was added to the supernatant and incubated overnight at −20° C., resulting in the precipitation of histone proteins. The pellet obtained after centrifugation for 10 minutes at 14000 rpm and 4° C. was washed with cold acetone, evaporated to dryness and resuspended in 50 μl distilled water. The protein content determination of both total and histone extracts was carried out by a colorimetric assay using a BCA Protein Assay Kit (Pierce cat: 23227).
H3 histone acetylation and total H3 amount were quantified by commercial ELISA assays PathScan acetylated histone H3 Sandwich Elisa kit, cat #7232C and PathScan total histone H3 Sandwich Elisa Kit, cat #7253C Cell Signaling) according to supplier reported method and by detecting absorbance at 450 nm wavelength using Multiskan Spectrum. ELISA tests were performed by analysing 0.250 μg and 0.500 μg of histone extract of each sample. The degree of acetylation was calculated by dividing H3 histone absorbance by histone total absorbance.
as §3

SMILES: CCN(CC)Cc1ccc2cc(COC(=O)Nc3ccc(C(=O)NO)cc3)ccc2c1 [Givinostat, reference compound]
- Body weight % vs control [1]: 0.9%
- Platelet % vs control [1]: −7%
- White blood cells % vs control [1]: −72%
- tubulin acetylation (in words) [2]: good acetylation of both tubulin and H3 histone
- fold induction at 0.037 µM ([2]; Conc 37 nM, 16 hours, read-out: Tubulin acetylation (ratio of acetylated tubulin and total tubulin towards control)): 1
- fold induction at 0.111 µM ([2]; Conc 111 nM, 16 hours, read-out: Tubulin acetylation (ratio of acetylated tubulin and total tubulin towards control)): 4
- fold induction at 0.333 µM ([2]; Conc 333 nM, 16 hours, read-out: Tubulin acetylation (ratio of acetylated tubulin and total tubulin towards control)): 12
- fold induction at 1 µM ([2]; Conc 1000 nM, 16 hours, read-out: Tubulin acetylation (ratio of acetylated tubulin and total tubulin towards control)): 18
- H3 histone acetylation (in words) [3]: good acetylation of both tubulin and H3 histone
- fold induction at 0.111 µM ([3]; 16 h, conc 111 nM, read-out: Acetylation of H3 histone (fold increase of acetylated H3/total H3 towards control)): 8
- fold induction at 0.333 µM ([3]; 16 h, conc 333 nM, read-out: Acetylation of H3 histone (fold increase of acetylated H3/total H3 towards control)): 17
- fold induction at 1 µM ([3]; 16 h, conc 1000 nM, read-out: Acetylation of H3 histone (fold increase of acetylated H3/total H3 towards control)): 23
